One test concerns the target Human plasma kallikrein (Homo sapiens (Human), UniProt P03952). Kind of test: Determination of the IC50 for Plasma Kallikrein. Type of test: biochemical. The note with it: read-out: IC50 (human PKal). The procedure: Human plasma kallikrein (Protogen) was incubated at 37° C. with the fluorogenic substrate H-DPro-Phe-Arg-AFC and various concentrations of the test compound. Residual enzyme activity (initial rate of reaction) was determined by measuring the change in optical absorbance at 410 nm and the IC50 value for the test compound was determined.

In the next test the target is Human KLK1 (Homo sapiens (Human), UniProt P06870). Description: Determination of the IC50 for KLK1. Format: biochemical. The note with it: 37° C., fluorogenic substrate H-DVal-Leu-Arg-AFC. As for the experimental part:
KLK1 inhibitory activity in vitro was determined using standard published methods (see e.g. Johansen et al., Int. J. Tiss. Reac. 1986, 8, 185; Shori et al., Biochem. Pharmacol., 1992, 43, 1209; Stürzebecher et al., Biol. Chem. Hoppe-Seyler, 1992, 373, 1025). Human KLK1 (Callbiochem) was incubated at 37° C. with the fluorogenic substrate H-DVal-Leu-Arg-AFC and various concentrations of the test compound. Residual enzyme activity (initial rate of reaction) was determined by measuring the change in optical absorbance at 410 nm and the IC50 value for the test compound was determined.

Where [1] appears, read: 37° C., fluorogenic substrate H-DPro-Phe-Arg-AFC.

Like-named read-outs stand apart in the source and are kept apart here. Where only a bound is given, the exact number is not on record here.

Chain of Human plasma kallikrein (P03952 391-638): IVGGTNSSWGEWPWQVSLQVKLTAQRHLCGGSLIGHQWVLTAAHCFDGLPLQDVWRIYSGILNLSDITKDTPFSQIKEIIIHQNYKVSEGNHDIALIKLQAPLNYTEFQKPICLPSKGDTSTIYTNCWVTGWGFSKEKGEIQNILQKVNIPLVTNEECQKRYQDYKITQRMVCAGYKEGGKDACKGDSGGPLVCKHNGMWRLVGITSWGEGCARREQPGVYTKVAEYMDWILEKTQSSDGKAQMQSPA
Chain of Human plasma kallikrein (P03952 20-390 partner): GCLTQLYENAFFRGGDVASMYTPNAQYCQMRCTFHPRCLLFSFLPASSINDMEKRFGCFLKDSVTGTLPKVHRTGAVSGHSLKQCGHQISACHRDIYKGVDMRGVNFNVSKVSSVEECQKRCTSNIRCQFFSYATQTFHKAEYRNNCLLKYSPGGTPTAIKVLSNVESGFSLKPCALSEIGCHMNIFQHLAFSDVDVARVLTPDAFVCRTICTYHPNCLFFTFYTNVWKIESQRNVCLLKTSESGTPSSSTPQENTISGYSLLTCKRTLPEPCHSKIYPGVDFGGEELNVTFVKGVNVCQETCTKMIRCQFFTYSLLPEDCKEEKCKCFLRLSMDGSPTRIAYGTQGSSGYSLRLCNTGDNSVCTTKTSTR
Chain of Human KLK1 (P06870 25-262): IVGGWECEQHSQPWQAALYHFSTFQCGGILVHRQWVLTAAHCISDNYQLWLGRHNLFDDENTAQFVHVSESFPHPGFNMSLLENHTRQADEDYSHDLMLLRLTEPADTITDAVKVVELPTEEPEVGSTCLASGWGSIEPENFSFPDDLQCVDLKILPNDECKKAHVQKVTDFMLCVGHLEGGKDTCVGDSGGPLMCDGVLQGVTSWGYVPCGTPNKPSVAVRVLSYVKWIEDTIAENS

Turning to `Cc1cc(C(=O)NCc2ccc(CN)cc2)c(C)n1Cc1cccc(C#N)c1` [Example 64, 1-(3-Cyano-benzyl)-2,5-dimethyl-1H-pyrrole-3-carboxylic acid 4-aminomethyl-benzylamide], the results for the IC50 at Human plasma kallikrein (setting [1]) and on Human KLK1 were 6250 nM and above 10 µM, respectively.
The corresponding values for `Cc1cc(C(=O)NCc2ccc(CN)cc2)c(C)n1Cc1ccc(C#N)cc1` [Example 65, 1-(4-Cyano-benzyl)-2,5-dimethyl-1H-pyrrole-3-carboxylic acid 4-aminomethyl-benzylamide] are 4560 nM and above 10 µM.
In the case of `Cc1cc(C(=O)NCc2ccc(CN)cc2)c(C)n1Cc1cccc(CN)c1` [Example 66, 1-(3-Aminomethyl-benzyl)-2,5-dimethyl-1H-pyrrole-3-carboxylic acid 4-aminomethyl-benzylamide], the IC50 on Human plasma kallikrein (setting [1]) was 5380 nM; on Human KLK1, 4.23 µM.
Consider `Cc1cc(C(=O)NCc2ccc(CN)cc2)c(C)n1Cc1ccc(CN)cc1` [Example 67, 1-(4-Aminomethyl-benzyl)-2,5-dimethyl-1H-pyrrole-3-carboxylic acid 4-aminomethyl-benzylamide], for which the IC50 on Human plasma kallikrein (setting [1]) was determined as 3500 nM; on Human KLK1, 6.97 µM.
As to `CC(=O)NCc1ccc(Cn2c(C)cc(C(=O)NCc3ccc(CN)cc3)c2C)cc1` [Example 68, 1-[4-(Acetylamino-methyl)-benzyl]-2,5-dimethyl-1H-pyrrole-3-carboxylic acid 4-aminomethyl-benzylamide], the figures for the IC50 on Human plasma kallikrein (setting [1]) and at Human KLK1 were 2090 nM and above 10 µM, respectively.
As for `Cc1cc(C(=O)NCc2ccc(CN)cc2)c(C)n1Cc1cccc(-c2ccccc2)c1` [Example 69, 1-Biphenyl-3-ylmethyl-2,5-dimethyl-1H-pyrrole-3-carboxylic acid 4-aminomethyl-benzylamide], the concentration for half-maximal inhibition (IC50) at Human plasma kallikrein (setting [1]) was 689 nM; against Human KLK1 it was above 10 µM.
For `Cc1cc(C(=O)NCc2ccc(CN)cc2)c(C)n1Cc1ccc(-c2ccccc2)cc1` [Example 70, 1-Biphenyl-4-ylmethyl-2,5-dimethyl-1H-pyrrole-3-carboxylic acid 4-aminomethyl-benzylamide], the IC50 was 4590 nM on Human plasma kallikrein (setting [1]) and above 10 µM against Human KLK1.
For `Cc1cc(C(=O)NCc2ccc(CN)cc2)c(C)n1Cc1cccc(-c2cccnc2)c1` [Example 71, 2,5-Dimethyl-1-(3-pyridin-3-yl-benzyl)-1H-pyrrole-3-carboxylic acid 4-aminomethyl-benzylamide] the same measures were 702 nM and above 10 µM.
Take `Cc1cc(C(=O)NCc2ccc(CN)cc2)c(C)n1Cc1cccc(-c2ccncc2)c1` [Example 72, 2,5-Dimethyl-1-(3-pyridin-4-yl-benzyl)-1H-pyrrole-3-carboxylic acid 4-aminomethyl-benzylamide]: the figures for the half-maximal inhibitory concentration (IC50) at Human plasma kallikrein (setting [1]) and on Human KLK1 were 3020 nM and above 10 µM, respectively.
For `Cc1cc(C(=O)NCc2ccc(CN)cc2)c(C)n1Cc1cccc(N2CCOCC2)c1` [Example 73, 2,5-Dimethyl-1-(3-morpholin-4-yl-benzyl)-1H-pyrrole-3-carboxylic acid 4-aminomethyl-benzylamide], the IC50 was 7580 nM at Human plasma kallikrein (setting [1]) and above 10 µM on Human KLK1.
With `Cc1cc(C(=O)NCc2ccc(CN)cc2)c(C)n1Cc1cccc(N2CCCCC2)c1` [Example 74, 2,5-Dimethyl-1-(3-piperidin-1-yl-benzyl)-1H-pyrrole-3-carboxylic acid 4-aminomethyl-benzylamide], the IC50 is 1580 nM on Human plasma kallikrein (setting [1]) and above 10 µM on Human KLK1.
With `Cc1cc(C(=O)NCc2ccc(CN)cc2)n(C)c1Cc1ccccc1` [Example 75, 5-Benzyl-1,4-dimethyl-1H-pyrrole-2-carboxylic acid 4-aminomethyl-benzylamide], the IC50 on Human plasma kallikrein (setting [1]) was 4500 nM; at Human KLK1 it was above 10 µM.
For `Cc1cc(C(=O)NCc2ccc(CN)cc2)[nH]c1Cc1ccccc1` [Example 76, 5-Benzyl-4-methyl-1H-pyrrole-2-carboxylic acid 4-aminomethyl-benzylamide] the same measures were 8770 nM and above 10 µM.
For `CCn1c(C(=O)NCc2ccc(CN)cc2)cc(C)c1Cc1ccccc1` [Example 77, 5-Benzyl-1-ethyl-4-methyl-1H-pyrrole-2-carboxylic acid 4-aminomethyl-benzylamide] the same measures were 3720 nM and above 10 µM.
As for `CCCn1c(C(=O)NCc2ccc(CN)cc2)cc(C)c1Cc1ccccc1` [Example 78, 5-Benzyl-4-methyl-1-propyl-1H-pyrrole-2-carboxylic acid 4-aminomethyl-benzylamide], the IC50 at Human plasma kallikrein (setting [1]) was 4130 nM; against Human KLK1, above 10 µM.
Consider `CC(C)NC(=O)c1ccc(Cn2cc(C(=O)NCc3ccc(CN)cc3)cn2)cc1` [Example 79, 1-(4-Isopropylcarbamoyl-benzyl)-1H-pyrazole-4-carboxylic acid 4-aminomethyl-benzylamide], for which the IC50 at Human plasma kallikrein (setting [1]) is 5550 nM; against Human KLK1, above 10 µM.
`Cc1c(C(=O)NCc2ccc(CN)cc2)cnn1Cc1csc(-c2ccccc2)n1` [Example 80, 5-Methyl-1-(2-phenyl-thiazol-4-ylmethyl)-1H-pyrazole-4-carboxylic acid 4-aminomethyl-benzylamide]: the IC50 at Human plasma kallikrein (setting [1]) is 2340 nM; at Human KLK1, above 10 µM.
For `Cc1nn(Cc2csc(-c3ccccc3)n2)cc1C(=O)NCc1ccc(CN)cc1` [Example 81, 3-Methyl-1-(2-phenyl-thiazol-4-ylmethyl)-1H-pyrazole-4-carboxylic acid 4-aminomethyl-benzylamide], the IC50 on Human plasma kallikrein (setting [1]) is 695 nM; on Human KLK1 it was above 10 µM.
Take `NCc1ccc(CNC(=O)c2cnn(Cc3csc(-c4ccccc4)n3)c2C(F)(F)F)cc1` [Example 82, 1-(2-Phenyl-thiazol-4-ylmethyl)-5-trifluoromethyl-1H-pyrazole-4-carboxylic acid 4-aminomethyl-benzylamide]: the values for the concentration for half-maximal inhibition (IC50) at Human plasma kallikrein (setting [1]) and at Human KLK1 were 488 nM and above 8.66 µM, respectively.
Consider `Cc1cnn(Cc2ccc(Cn3cc(C(=O)NCc4ccc(CN)cc4)cn3)cc2)c1` [Example 85, 1-[4-(4-Methyl-pyrazol-1-ylmethyl)-benzyl]-1H-pyrazole-4-carboxylic acid 4-aminomethyl-benzylamide], for which the IC50 on Human plasma kallikrein was 11 nM; at Human KLK1, above 8.51 µM.
In the case of `Cc1cc(C)n(Cc2ccc(Cn3cc(C(=O)NCc4ccc(CN)cc4)cn3)cc2)n1` [Example 86, 1-[4-(3,5-Dimethyl-pyrazol-1-ylmethyl)-benzyl]-1H-pyrazole-4-carboxylic acid 4-aminomethyl-benzylamide], the IC50 was 7 nM on Human plasma kallikrein (setting [1]) and above 10 µM against Human KLK1.
For `NCc1ccc(CNC(=O)c2cnn(Cc3ccc(C(=O)N4CCCCC4)cc3)c2)cc1` [Example 87, 1-[4-(Piperidine-1-carbonyl)-benzyl]-1H-pyrazole-4-carboxylic acid 4-aminomethyl-benzylamide] the same measures were 5480 nM and above 10 µM.
On to `NC1(c2ccc(CNC(=O)c3cnn(Cc4ccc(Cn5ccccc5=O)cc4)c3)cc2)CC1` [Example 89, 1-[4-(2-Oxo-2H-pyridin-1-ylmethyl)-benzyl]-1H-pyrazole-4-carboxylic acid 4-(1-amino-cyclopropyl)-benzylamide], for which the figures for the IC50 at Human plasma kallikrein (setting [1]) and on Human KLK1 were 226 nM and above 10 µM, respectively.
In the case of `Cc1cc(C(=O)NCc2ccc(CN)cc2)c(C)n1Cc1ccc(Cn2ccccc2=O)cc1` [Example 90, 2,5-Dimethyl-1-[4-(2-oxo-2H-pyridin-1-ylmethyl)-benzyl]-1H-pyrrole-3-carboxylic acid 4-aminomethyl-benzylamide], the results for the IC50 on Human plasma kallikrein and on Human KLK1 were 114 nM and above 10 µM, respectively.
On to `Cc1cc(CN)ccc1CNC(=O)c1cc(C)n(Cc2ccc(Cn3ccccc3=O)cc2)c1C` [Example 91, 2,5-Dimethyl-1-[4-(2-oxo-2H-pyridin-1-ylmethyl)-benzyl]-1H-pyrrole-3-carboxylic acid 4-aminomethyl-2-methyl-benzylamide], for which the IC50 on Human plasma kallikrein (setting [1]) was 29 nM; at Human KLK1 it was above 10 µM.
Consider `CCn1c(C(=O)NCc2ccc(CN)cc2C)cc(C)c1Cc1ccc(Cn2ccccc2=O)cc1` [Example 92, 1-Ethyl-4-methyl-5-[4-(2-oxo-2H-pyridin-1-ylmethyl)-benzyl]-1H-pyrrole-2-carboxylic acid 4-aminomethyl-2-methyl-benzylamide], for which the IC50 at Human plasma kallikrein (setting [1]) was 40 nM; on Human KLK1, 10 µM.
On to `CCn1c(C(=O)NCc2ccc(C3(N)CC3)cc2)cc(C)c1Cc1ccc(Cn2ccccc2=O)cc1` [Example 93, 1-Ethyl-4-methyl-5-[4-(2-oxo-2H-pyridin-1-ylmethyl)-benzyl]-1H-pyrrole-2-carboxylic acid 4-(1-amino-cyclopropyl)-benzylamide], for which the IC50 is 2840 nM on Human plasma kallikrein (setting [1]) and above 10 µM against Human KLK1.
Regarding `Cc1cc(CN)cc(C)c1CNC(=O)c1cc(C)n(Cc2ccc(Cn3ccccc3=O)cc2)c1C` [Example 94, 2,5-Dimethyl-1-[4-(2-oxo-2H-pyridin-1-ylmethyl)-benzyl]-1H-pyrrole-3-carboxylic acid 4-aminomethyl-2,6-dimethyl-benzylamide], the IC50 at Human plasma kallikrein (setting [1]) came out at 11 nM; at Human KLK1, 10.9 µM.
As for `CCn1c(C(=O)NCc2c(C)cc(CN)cc2C)cc(C)c1Cc1ccc(Cn2ccccc2=O)cc1` [Example 95, 1-Ethyl-4-methyl-5-[4-(2-oxo-2H-pyridin-1-ylmethyl)-benzyl]-1H-pyrrole-2-carboxylic acid 4-aminomethyl-2,6-dimethyl-benzylamide], the results for the IC50 at Human plasma kallikrein (setting [1]) and at Human KLK1 were 16 nM and 3.9 µM, respectively.

The values above are taken from US9670157B2, “Benzylamine derivatives” (KALVISTA PHARMACEUTICALS LIMITED, priority 2013, dated 2017).
